Results on eleven compounds are retold here after patent US6818646B2 (priority 2000, dated 2004).

The target in data set [1] is T1, PDEV (Homo sapiens, UniProt O76074).
T1 construct: PDEV was isolated from rabbit and human tissues according to the protocol described by Boolell et al; from tissue; host or cells: human tissue, homogenate supernatant fractionated on Mono Q
Nature of the data set: PDE assay: inhibition of PDEV isolated from human tissue. The settings on record: for IC50: PDEV inhibitory activity. The format is biochemical. As to the method:
(§1) Briefly, rabbit or human tissues were homogenized in an ice-cold buffer solution containing 20 mM HEPES (pH 7.2), 0.25M sucrose, 1 mM EDTA, and 1 mM phenylmethylsulphonyl fluoride (PMSF). The homogenates were centrifuged at 100,000 g for 60 minutes at 4° C. The supernatant was filtered through […] filter and loaded on a Pharmacia Mono Q anion exchange column (1 ml bed volume) that was equilibrated with 20 mM HEPES, 1 mM EDTA and 0.5 mM PMSF. After washing out unbound proteins, the enzymes were eluted with a linear gradient of 100-600 mM NaCl in the same buffer (35 to 50 ml total, depending on the tissue. Enzymes from the skeletal muscle, corpus cavernosum, retina, heart and platelet were eluted with 35, 40, 45, 50, and 50 ml respectively.) The column was run at a flow rate of 1 ml/min and 1 ml fractions were collected. The fractions comprising various PDE activities were pooled separately and used in later studies.
(§2) The assays were adapted to a 96-well format. The enzyme was assayed in 5 mM MgCl2, 15 mM Tris HCl (pH 7.4), 0.5 mg/ml bovine serum albumin, 1 μM cGMP or cAMP, 0.1 μCi [^3H]-cGMP or [^3H]-cAMP, and 2-10 μl of column elution. The total volume of the assay was 100 μl. The reaction mixture was incubated at 30° C. for 30 minutes. The reaction was stopped by boiling for 1 minute and then cooled down on ice. The resulting [^3H]5′-mononucleotides were further converted to uncharged [^3H]-nucleosides by adding 25 μl 1 mg/ml snake venom (Ophiophagus hannah) and incubating at 30° C. for 10 minute. The reaction was stopped by the addition of 1 ml Bio-Rad AG1-X2 resin slurry (1:3). All the charged nucleotides were bound by the resin and only uncharged [^3H]-nucleosides remained in the supernatant after centrifuging. An aliquot of 200 μl was taken and counted by liquid scintillation. PDE activity was expressed as pmol cyclic nucleotide hydrolyzed/min/ml of enzyme preparation.
(§3) Inhibitor studies were carried out in assay buffer with a final concentration of 10% DMSO.
(§4) The % inhibition of the maximum substrate conversion (by the enzyme in the absence of inhibitor) was calculated for each test compound concentration. Using GraphPad Prism's nonlinear regression analysis (sigmoidal dose response), the % inhibition vs log of the test compound concentration was plotted to determine the IC50. Under conditions where substrate concentration <<Km of the enzyme (Km=substrate concentration at which half of the maximal velocity of the enzyme is achieved), Ki is equivalent to the IC50 value.
(§5) Unless otherwise noted, PDEV inhibitory activities were measured using human tissue. The abbreviation “stereo” refers to the stereogenic configuration, the abbreviation “Rac” shall denote a racemic mixture.

Data set [2] concerns the target PDEV (Oryctolagus cuniculus, UniProt G1SX67). In words: PDE assay: inhibition of PDEV isolated from rabbit tissue. The format is biochemical. The following applies: PDEV inhibitory activity, rabbit tissue (footnote a). The procedure: as §1, §2, §3, §4, §5
The nature of data set [3]: In vivo testing for efficacy, procedure of Carter et al. The procedure:
Following the procedure disclosed by Carter et al., (Carter, A. J., Ballard, S. A., and Naylor, A. M.) in The Journal of Urology 1998, 160, 242-246, the compounds as listed in Table 7 were tested for in vivo efficacy, with results as tabulated below.

For data set [4], the target named is T1, PDEV. In words: In vitro determination of Ki for phosphodiesterase inhibitors. The settings on record: human tissue; given as 'Ki ='. The class given is biochemical. The procedure: The assays were adapted to a 96-well format. Phosphodiesterase was assayed in 5 mM MgCl2, 15 mM Tris HCl (pH 7.4), 0.5 mg/ml bovine serum albumin, 30 nM ^3H-cGMP and test compound at various concentrations. The amount of enzyme used for each reaction was such that less than 15% of the initial substrate was converted during the assay period. For all measurements, the test compound was dissolved and diluted in 100% DMSO (2% DMSO in assay). The total volume of the assay was 100 μl. The reaction mixture was incubated at 30° C. for 90 minutes. The reaction was stopped by boiling for 1 minute and then immediately cooled by transfer to an ice bath. To each well was then added 25 μl 1 mg/ml snake venom (Ophiophagus hannah) and the reaction mixture incubating at 30° C. for 10 minute. The reaction was stopped by the addition of 1 ml Bio-Rad AG1-X2 resin slurry (1:3). An aliquot of 200 μl was taken and counted by liquid scintillation.
as §4, §5

The compound `COc1ccc(-c2cnc(N3Cc4c([nH]c5ccccc5c4=O)C3c3ccc4c(c3)OCO4)nc2)cc1` (racemic) [Compound 2, 1,2,3,4-Tetrahydro-2-[5-(4-methoxyphenyl)-pyrimidin-2-yl]-3-(3,4-methylene-dioxyphenyl)-9H-pyrrolo-[3,4-b]quinolin-9-one] had a melting point of 325 to 327 °C. For the same compound, the IC50 against PDEV [1] worked out at 0.191 nM.
`COc1ccc(C2NCc3c2[nH]c2ccccc2c3=O)cc1OC` (racemic) [Compound 12, 1,2,3,4-Tetrahydro-3-(3,4-dimethoxyphenyl)-9H-pyrrolo-[3,4-b]quinolin-9-one] had a melting point of 223 to 225 °C. The IC50 against PDEV [2] amounted to 549 nM.
Take `O=c1c2c([nH]c3ccccc13)C(c1ccc3c(c1)OCO3)N(C(=S)n1ccnc1)C2` (racemic) [Compound 18, 1,2,3,4-Tetrahydro-2-(imidazol-1-yl)thiocarbonyl-3-(3,4-methylenedioxyphenyl)-9H-pyrrolo-[3,4-b]quinolin-9-one]: the melting point is 211 to 215 °C (dec.). The compound also had an inhibition at 10 µM on PDEV [1] (10 μM test compound) of 54%.
On to `Cl.O=C(OCc1ccncc1)N1Cc2c([nH]c3ccccc3c2=O)C1c1ccc2c(c1)OCO2` (racemic) [Compound 37, 1,2,3,4-Tetrahydro-2-[(4-pyridinyl)methyloxycarbonyl]-3-(3,4-methylenedioxyphenyl)-9H-pyrrolo-[3,4-b]quinolin-9-one, hydrochloride salt], for which inhibition on PDEV [1] was half-maximal at 5.72 nM (IC50). In data set [3], the Efficacy entry was “Active”.
With `Oc1c2c(nc3ccccc13)C(c1ccc3c(c1)CCO3)N(c1ccc(-c3ccccn3)cn1)C2` (racemic) [Compound 134, 2-[2,3′]Bipyridinyl-6′-yl-3-(2,3-dihydro-benzofuran-5-yl)-1,2,3,4-tetrahydro-pyrrolo[3,4-b]quinolin-9-one], affinity on PDEV [4] was put at a Ki of 1.1 nM.
`COc1ccc(-c2cnc(N3Cc4c([nH]c5ccccc5c4=O)[C@H]3c3ccc4c(c3)OCO4)nc2)cc1OC` [Compound 36, (R)-1,2,3,4-Tetrahydro-2-[5-(3,4-dimethoxyphenyl)-pyrimidin-2-yl]-3-(3,4-methylenedioxyphenyl)-9H-pyrrolo-[3,4-b]quinolin-9-one] yielded an IC50 against PDEV [1] of 0.075 nM. In addition, in data set [3], the Efficacy entry is “Active”.
Compound `O=c1c2c([nH]c3ccccc13)[C@@H](c1ccc3c(c1)CCO3)N(c1ncc(-c3ccccn3)cn1)C2` [Compound 65, (R)-1,2,3,4-Tetrahydro-2-[5-(2-pyridinyl)-pyrimidin-2-yl]-3-(2,3-dihydrobenzofuranyl)-9H-pyrrolo-[3,4-b]quinolin-9-one] showed an IC50 against PDEV [1] of 0.23 nM. Besides, the Efficacy entry in data set [3] is “Active”.
The compound `COc1ccc(-c2cnc(N3Cc4c([nH]c5ccccc5c4=O)[C@H]3c3ccc4c(c3)CCO4)nc2)cc1` [Compound 66, (R)-1,2,3,4-Tetrahydro-2-[5-(4-methoxyphenyl)-pyrimidin-2-yl]-3-(2,4-dihydrobenzofuranyl)-9H-pyrrolo-[3,4-b]quinolin-9-one] gave an IC50 against PDEV [1] of 0.19 nM. For the same compound, the Efficacy entry in data set [3] is given as “Active”.
As to `O=c1c2c([nH]c3ccccc13)C(c1ccc3c(c1)CCO3)N(c1ncc(-c3cccc[n+]3[O-])cn1)C2` (stereo not drawn) [Compound 125, 3-(2,3-Dihydro-benzofuran-5-yl)-2-[5-(1-oxy-pyridin-2-yl)-pyrimidin-2-yl]-1,2,3,4-tetrahydro-pyrrolo[3,4-b]quinolin-9-one], the affinity on PDEV [4] corresponds to a Ki of 0.144 nM.
On the same count and under the same terms, with `Cc1ncc(-c2cnc(N3Cc4c([nH]c5ccccc5c4=O)C3c3ccc4c(c3)CCO4)nc2)n1C` (stereo not drawn) [Compound 128, 3-(2,3-Dihydro-benzofuran-5-yl)-2-[5-(2,3-dimethyl-3H-imidazol-4-yl)-pyrimidin-2-yl]-1,2,3,4-tetrahydro-pyrrolo[3,4-β]quinolin-9-one] the figure was 0.3 nM; with `O=c1c2c([nH]c3ccccc13)C(c1ccc3c(c1)CCO3)N(c1ccccn1)C2` (stereo not drawn) [Compound 136, 3-(2,3-Dihydro-benzofuran-5-yl)-2-pyridin-2-yl-1,2,3,4-tetrahydro-pyrrolo[3,4-b]quinolin-9-one], 0.18 nM.

In general, IC50 refers to the point on the concentration scale where inhibition reaches its midpoint. Lower therefore signals greater potency. The melting point is the temperature, or range, at which the solid turns liquid. By inhibition is commonly meant how much of the control response was suppressed. One may read the Ki as a dissociation constant, usually derived from enzyme kinetics or from competition with a known ligand.
